In patent US8148373B2, “Compounds” (AstraZeneca AB, priority 2008, dated 2012) one finds activation and inhibition data, which are given here for 20 molecules.

Experiment [1] concerns the target T1, Adrenergic β2 (H292 cells) (Homo sapiens, UniProt P07550).
T1 construct: endogenous in cells; host or cells: H292 cells
As to the kind of experiment: Adrenergic β2 Mediated cAMP Production, single concentration 1 μM. The note with it: NCI-H292, 1 μM compound, percentage of the maximum response generated by 1E-07M formoterol, read-out: β2 (% effect at 1 μM). The class given is cell-based. An outline of the steps: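 cAMP was quantified by AlphaScreen in lysates of H292 cells and reported as a percentage of the 1E-07M formoterol maximum. Before lysis the cells, seeded the previous day, received rolipram (300 μM final) and then test compound at a final 1 μM in 1% DMSO for 60 min at room temperature.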

Experiment [2] has as its target T2, human muscarinic acetylcholine M3 receptor (M3-ACh) (Homo sapiens, UniProt P20309).
T2 construct: expressed in transfected cells; host or cells: CHO-K1 (Chinese Hamster Ovary) cell membranes
As to the kind of experiment: Muscarinic 3 Receptor Binding Assay, % inhibition specific binding at 1 μM. The note with it: 1 μM compound, % inhibition specific [3H]-NMS binding. An outline of the steps: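 Value is % inhibition of specific [3H]N-methyl scopolamine binding (0.1 nM, quarter Kd) by 1 μM compound, using SPA beads precoated with human M3-expressing CHO-K1 membranes. Buffer HEPES pH 7.4 with MgCl2 and 1% DMSO; 16 h at room temperature; 1 μM atropine sets non-specific binding.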

T1 sequence (P07550 whole entry): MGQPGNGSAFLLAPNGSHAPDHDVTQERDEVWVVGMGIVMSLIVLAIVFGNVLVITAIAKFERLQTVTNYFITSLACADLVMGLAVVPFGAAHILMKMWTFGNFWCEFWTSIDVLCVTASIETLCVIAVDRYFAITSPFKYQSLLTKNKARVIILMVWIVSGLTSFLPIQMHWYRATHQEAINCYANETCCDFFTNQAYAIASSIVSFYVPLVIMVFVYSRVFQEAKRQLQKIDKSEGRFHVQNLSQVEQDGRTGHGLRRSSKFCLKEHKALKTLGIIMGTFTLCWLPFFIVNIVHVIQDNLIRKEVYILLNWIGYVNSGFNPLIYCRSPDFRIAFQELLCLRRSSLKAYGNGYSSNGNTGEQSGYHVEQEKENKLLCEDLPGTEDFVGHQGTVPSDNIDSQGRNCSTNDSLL
T2 sequence (P20309 whole entry): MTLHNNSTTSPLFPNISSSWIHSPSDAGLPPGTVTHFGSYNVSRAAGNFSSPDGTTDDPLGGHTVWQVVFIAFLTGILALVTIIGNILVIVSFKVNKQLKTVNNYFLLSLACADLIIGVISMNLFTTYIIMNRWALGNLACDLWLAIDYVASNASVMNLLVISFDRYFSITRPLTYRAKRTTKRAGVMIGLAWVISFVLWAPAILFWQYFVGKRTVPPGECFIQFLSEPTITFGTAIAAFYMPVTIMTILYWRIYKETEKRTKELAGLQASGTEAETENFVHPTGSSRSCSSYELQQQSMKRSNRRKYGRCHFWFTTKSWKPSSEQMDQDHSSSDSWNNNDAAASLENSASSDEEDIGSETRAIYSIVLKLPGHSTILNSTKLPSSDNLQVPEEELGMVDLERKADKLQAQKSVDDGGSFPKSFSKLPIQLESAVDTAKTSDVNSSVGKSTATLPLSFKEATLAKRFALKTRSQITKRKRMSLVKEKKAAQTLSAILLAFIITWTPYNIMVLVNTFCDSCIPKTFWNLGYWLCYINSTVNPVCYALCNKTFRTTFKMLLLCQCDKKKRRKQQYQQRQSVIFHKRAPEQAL

With `O=C(CCc1ccccc1)N1CCOC2(CCN(CCCCCCCCCNC[C@H](O)c3ccc(O)c4[nH]c(=O)sc34)CC2)C1` [Example 187, (R)-4-hydroxy-7-(1-hydroxy-2-(9-(4-(3-phenylpropanoyl)-1-oxa-4,9-diazaspiro[5.5]undecan-9-yl)nonylamino)ethyl)benzo[d]thiazol-2(3H)-one], the activation at 1 µM in experiment [1] turned out to be 92%. Further, 1 µM produced 84% inhibition in experiment [2].
For `Cc1cc(C(=O)N2CCOC3(CCN(CCOc4ccc(CNC[C@H](O)c5ccc(O)c6[nH]c(=O)sc56)cc4)CC3)C2)oc1C` [Example 236, (R)-7-(2-(4-(2-(4-(4,5-dimethylfuran-2-carbonyl)-1-oxa-4,9-diazaspiro[5.5]undecan-9-yl)ethoxy)benzylamino)-1-hydroxyethyl)-4-hydroxy-benzo[d]thiazol-2(3H)-one] the same measures were 73% and 30%.
For `O=C(c1ccc(-c2cc[nH]n2)cc1)N1CCOC2(CCN(Cc3cc(F)cc(CCNC[C@H](O)c4ccc(O)c5[nH]c(=O)sc45)c3)CC2)C1` [Example 148, (R)-7-(2-(3-((4-(4-(1H-pyrazol-3-yl)benzoyl)-1-oxa-4,9-diazaspiro[5.5]undecan-9-yl)methyl)-5-fluorophenethylamino)-1-hydroxyethyl)-4-hydroxybenzo[d]thiazol-2(3H)-one] the same measures were 104% and 4%.
For `O=C(Cc1ccsc1)N1CCOC2(CCN(CCCCCCCCCNC[C@H](O)c3ccc(O)c4[nH]c(=O)sc34)CC2)C1` [Example 192, (R)-4-hydroxy-7-(1-hydroxy-2-(9-(4-(2-(thiophen-3-yl)acetyl)-1-oxa-4,9-diazaspiro[5.5]undecan-9-yl)nonylamino)ethyl)benzo[d]thiazol-2(3H)-one] the same measures were 88% and 96%.
For the molecule `Cc1nc(C(=O)N2CCOC3(CCN(CCOc4ccc(CNC[C@H](O)c5ccc(O)c6[nH]c(=O)sc56)cc4)CC3)C2)c(C)s1` [Example 242, (R)-7-(2-(4-(2-(4-(2,5-dimethylthiazole-4-carbonyl)-1-oxa-4,9-diazaspiro[5.5]undecan-9-yl)ethoxy)benzylamino)-1-hydroxyethyl)-4-hydroxy-benzo[d]thiazol-2(3H)-one], the activation at 1 µM in experiment [1] was determined as 43%. Moreover, in experiment [2], 1 µM produced 83% inhibition.
In the same order, the values of `Cc1occc1C(=O)N1CCOC2(CCN(Cc3cc(F)cc(CCNC[C@H](O)c4ccc(O)c5[nH]c(=O)sc45)c3)CC2)C1` [Example 131, (R)-7-(2-(3-fluoro-5-((4-(2-methylfuran-3-carbonyl)-1-oxa-4,9-diazaspiro[5.5]undecan-9-yl)methyl)phenethylamino)-1-hydroxyethyl)-4-hydroxybenzo[d]thiazol-2(3H)-one] are 95% and 41%.
In the same order, the values of `O=C(c1ccc2ccccc2n1)N1CCOC2(CCN(Cc3cc(F)cc(CCNC[C@H](O)c4ccc(O)c5[nH]c(=O)sc45)c3)CC2)C1` [Example 119, (R)-7-(2-(3-fluoro-5-((4-(quinoline-2-carbonyl)-1-oxa-4,9-diazaspiro[5.5]undecan-9-yl)methyl)phenethylamino)-1-hydroxyethyl)-4-hydroxybenzo[d]thiazol-2(3H)-one] are 100% and 60%.
In the same order, the values of `O=C(CCc1ccccc1)N1CCOC2(CCN(CCOc3ccc(CNC[C@H](O)c4ccc(O)c5[nH]c(=O)sc45)cc3)CC2)C1` [Example 228, (R)-4-hydroxy-7-(1-hydroxy-2-(4-(2-(4-(3-phenylpropanoyl)-1-oxa-4,9-diazaspiro[5.5]undecan-9-yl)ethoxy)benzylamino)ethyl) benzo[d]thiazol-2(3H)-one] are 67% and 22%.
For the molecule `O=C(COc1ccccc1)N1CCOC2(CCN(CCCCCCCCCNC[C@H](O)c3ccc(O)c4[nH]c(=O)sc34)CC2)C1` [Example 199, (R)-4-hydroxy-7-(1-hydroxy-2-(9-(4-(2-phenoxyacetyl)-1-oxa-4,9-diazaspiro[5.5]undecan-9-yl)nonylamino)ethyl)benzo[d]thiazol-2(3H)-one], the activation at 1 µM in experiment [1] came to 91%. In experiment [2], testing at 1 µM gave an inhibition of 91%.
For the molecule `O=C(CCCc1ccccc1)N1CCOC2(CCN(CCCCCCCCCNC[C@H](O)c3ccc(O)c4[nH]c(=O)sc34)CC2)C1` [Example 188, (R)-4-hydroxy-7-(1-hydroxy-2-(9-(4-(4-phenylbutanoyl)-1-oxa-4,9-diazaspiro[5.5]undecan-9-yl)nonylamino)ethyl)benzo[d]thiazol-2(3H)-one], the activation at 1 µM in experiment [1] came out at 93%. In addition, in experiment [2], the inhibition at 1 µM was found to be 96%.
In the same order, the values of `O=C(Cc1ccsc1)N1CCOC2(CCN(CCOc3ccc(CNC[C@H](O)c4ccc(O)c5[nH]c(=O)sc45)cc3)CC2)C1` [Example 233, (R)-4-hydroxy-7-(1-hydroxy-2-(4-(2-(4-(2-(thiophen-3-yl)acetyl)-1-oxa-4,9-diazaspiro[5.5]undecan-9-yl)ethoxy)benzylamino)ethyl) benzo[d]thiazol-2(3H)-one] are 82% and 51%.
Turning to `O=C(c1cc2ccccc2[nH]1)N1CCOC2(CCN(Cc3cc(F)cc(CCNC[C@H](O)c4ccc(O)c5[nH]c(=O)sc45)c3)CC2)C1` [Example 120, (R)-7-(2-(3-((4-(1H-indole-2-carbonyl)-1-oxa-4,9-diazaspiro[5.5]undecan-9-yl)methyl)-5-fluorophenethylamino)-1-hydroxyethyl)-4-hydroxybenzo[d]thiazol-2(3H)-one], the activation at 1 µM in experiment [1] amounted to 101%. The molecule also yielded an inhibition at 1 µM in experiment [2] of 82%.
As for `Cc1cc(CC(=O)N2CCOC3(CCN(CCCCCCCCCNC[C@H](O)c4ccc(O)c5[nH]c(=O)sc45)CC3)C2)on1` [Example 208, (R)-4-hydroxy-7-(1-hydroxy-2-(9-(4-(2-(3-methylisoxazol-5-yl)acetyl)-1-oxa-4,9-diazaspiro[5.5]undecan-9-yl)nonylamino)ethyl)benzo[d]thiazol-2(3H)-one], the activation at 1 µM in experiment [1] came out at 98%. The molecule also gave an inhibition at 1 µM in experiment [2] of 88%.
Take `Cc1occc1C(=O)N1CCOC2(CCN(CCOc3ccc(CNC[C@H](O)c4ccc(O)c5[nH]c(=O)sc45)cc3)CC2)C1` [Example 238, (R)-4-hydroxy-7-(1-hydroxy-2-(4-(2-(4-(2-methylfuran-3-carbonyl)-1-oxa-4,9-diazaspiro[5.5]undecan-9-yl)ethoxy)benzylamino)ethyl) benzo[d]thiazol-2(3H)-one]: the activation at 1 µM in experiment [1] turned out to be 73%. Also, the inhibition at 1 µM in experiment [2] is 57%.
On to `COc1ccccc1CC(=O)N1CCOC2(CCN(Cc3cc(F)cc(CCNC[C@H](O)c4ccc(O)c5[nH]c(=O)sc45)c3)CC2)C1` [Example 117, (R)-7-(2-(3-fluoro-5-((4-(2-(2-methoxyphenyl)acetyl)-1-oxa-4,9-diazaspiro[5.5]undecan-9-yl)methyl)phenethylamino)-1-hydroxyethyl)-4-hydroxybenzo[d]thiazol-2(3H)-one], for which, in experiment [1], the activation at 1 µM is 101%. The molecule further had an inhibition at 1 µM in experiment [2] of 22%.
On to `Cc1nn(-c2ccccc2)nc1C(=O)N1CCOC2(CCN(Cc3cc(F)cc(CCNC[C@H](O)c4ccc(O)c5[nH]c(=O)sc45)c3)CC2)C1` [Example 170, (R)-7-(2-(3-fluoro-5-((4-(5-methyl-2-phenyl-2H-1,2,3-triazole-4-carbonyl)-1-oxa-4,9-diazaspiro[5.5]undecan-9-yl)methyl)phenethylamino)-1-hydroxyethyl)-4-hydroxybenzo[d]thiazol-2(3H)-one], for which the activation at 1 µM in experiment [1] worked out at 102%. Moreover, in experiment [2], at 1 µM the inhibition was 42%.
For `Cc1ccn(CC(=O)N2CCOC3(CCN(CCOc4ccc(CNC[C@H](O)c5ccc(O)c6[nH]c(=O)sc56)cc4)CC3)C2)n1` [Example 245, (R)-4-hydroxy-7-(1-hydroxy-2-(4-(2-(4-(2-(3-methyl-1H-pyrazol-1-yl)acetyl)-1-oxa-4,9-diazaspiro[5.5]undecan-9-yl)ethoxy)benzylamino)ethyl) benzo[d]thiazol-2(3H)-one] the same measures were 76% and 51%.
In the same order, the values of `Cc1nc(C)c(CC(=O)N2CCOC3(CCN(CCOc4ccc(CNC[C@H](O)c5ccc(O)c6[nH]c(=O)sc56)cc4)CC3)C2)s1` [Example 252, (R)-7-(2-(4-(2-(4-(2-(2,4-dimethylthiazol-5-yl)acetyl)-1-oxa-4,9-diazaspiro[5.5]undecan-9-yl)ethoxy)benzylamino)-1-hydroxyethyl)-4-hydroxy-benzo[d]thiazol-2(3H)-one] are 88% and 10%.
`O=C(c1csc(C2CCCC2)n1)N1CCOC2(CCN(CCOc3ccc(CNC[C@H](O)c4ccc(O)c5[nH]c(=O)sc45)cc3)CC2)C1` [Example 262, (R)-7-(2-(4-(2-(4-(2-cyclopentylthiazole-4-carbonyl)-1-oxa-4,9-diazaspiro[5.5]undecan-9-yl)ethoxy)benzylamino)-1-hydroxyethyl)-4-hydroxy-benzo[d]thiazol-2(3H)-one]: the activation at 1 µM in experiment [1] came to 69%. In experiment [2], this molecule returned an inhibition at 1 µM of 82%.
For `O=C(CCOc1ccccc1)N1CCOC2(CCN(CCCCCCCCCNC[C@H](O)c3ccc(O)c4[nH]c(=O)sc34)CC2)C1` [Example 206, (R)-4-hydroxy-7-(1-hydroxy-2-(9-(4-(3-phenoxypropanoyl)-1-oxa-4,9-diazaspiro[5.5]undecan-9-yl)nonylamino)ethyl)benzo[d]thiazol-2(3H)-one] the same measures were 95% and 95%.
